System: T-type calcium channels
Assay: T-type calcium channel inhibitory activity (Fluo-4 FLIPR fluorescence and whole cell patch clamp)
Format: cell-based, mammalian
Details: cells natively expressing T-type channels or HEK-293 cells expressing recombinant T-type calcium channels; fluorometric and electrophysiological methods, not distinguished in the table; read-out: Activity (inhibition of T-type calcium channels, IC50)
Method: T-type calcium channel inhibitory activity of some compounds of the invention was evaluated using both fluorometric as well as electrophysiological measurement methodologies, which are known to those skilled in the art. Fluorescence measurement of changes in intracellular calcium due to entry of calcium through T-type calcium channels was assessed using calcium sensitive fluorescent dyes Fluo-4 and Fluo-3. In brief, cells natively expressing T-type channels or HEK-293 cells transiently or stably expressing recombinant mammalian T-type calcium channels grown in 96-well tissue culture plates in DMEM/High glucose, Hyclone, Fetal Bovine Serum (10%), and 2 mM sodium pyruvate 2 mM (and for cells lines recombinantly expressing T-type calcium channels, G418@400 mg/liter) were loaded with 4 μM Fluo-4 made up in Earls Balanced Salt Solution (EBSS). After incubation for 30 minutes at room temperature, cells were washed with low calcium (0.5 mM) EBSS to remove extracellular Fluo-4. Baseline fluorescence was measured in a FLIPR (FLuorescence Image Plate Reader) (Molecular Devices Inc) after applying test compounds at desired concentration for 5-10 minutes. The effect of test compound on calcium entry was assessed by monitoring changes in Fluo-4 fluorescence following an elevation of extracellular calcium concentration from 0.5 mM to 5 mM. […] Native cells natively expressing T-type channels or HEK-293 cells transiently or stably expressing recombinant mammalian T-type calcium channels were grown in DMEM/High glucose, Hyclone, Fetal Bovine Serum (10%), 2 mM sodium pyruvate 2 mM (and for cells lines recombinantly expressing T-type calcium channels, G418@400 mg/liter) on glass coverslips in 35 mm tissue culture dishes. […] Electrical currents were measured using the whole cell configuration of the patch clamp technique (Axopatch 200B, Axon Instruments (Molecular Devices) (see Hamill et al (1981) PFugers Arch, 1981 391:85-100) using 2-2.5 MOhm resistance glass pipettes filled with 135 CsF, 5 CsCl, 5 NaCl, 5 EGTA, 10 HEPES, pH 7.3 with CsOH, Osmolarity ˜288 mOsm. Test compound effects were typically assessed under conditions in which approximately half of the available channels were inactivated either by an 8 second conditioning depolarization from a holding potential of −100 mV to a potential ranging from −70 mV to −60 mV or by continually holding the membrane potential at −70 mV. Test compounds were assessed for their ability to reduce the amplitude of the inward T-type calcium current elicited by a 100 ms step depolarization −20 or −30 mV.

IC50, 1 to 1000 nM:
[5-(3-Ethoxy-benzenesulfonyl)-thiazol-2-yl]-[6-(3-methylamino)propyl)-2-methyl-pyrimidin-4-yl]-amine [Example 35]
CCOc1cccc(S(=O)(=O)c2cnc(Nc3cc(NCC[C@H]4CCNC4)nc(C)n3)s2)c1 [Example 10, N-[5-(3-ethoxy-benzenesulfonyl)-thiazol-2-yl]-2-methyl-N′-(R)-(pyrrolidin-3-yl-ethyl)-pyrimidine-4,6-diamine]
CCOc1cccc(S(=O)(=O)c2cnc(Nc3cc(OC[C@H]4CCCN4)nc(C)n3)s2)c1 [Example 21, N-[5-(3-ethoxy-benzenesulfonyl)-thiazol-2-yl]-[2-methyl-((6R)-1-pyrrolidin-2-yl-methoxy)pyrimidin-4-yl]-amine]
CCOc1cccc(S(=O)(=O)c2cnc(Nc3cc(OCCN(C)C)nc(C(F)(F)F)n3)s2)c1 [Example 28, [6-(2-Dimethylamino-ethoxy)-2-trifluormethyl-pyrimidin-4-yl]-[5-(3-Ethoxy-benzenesulfonyl)-thiazol-2-yl]-amine]

— patent US8034954B2, “Calcium channel antagonists” (Icagen, Inc., priority 2005, dated 2011)
